Assay [1] concerns the target T1, Adenosylhomocysteinase (Homo sapiens, UniProt P23526). The assay can be described thus: Concentration with maximum apparent affinity (Kapp) for S-adenosyl-l-homocysteine (SAH) hydrolase was reported.
Target sequence in this assay (P23526 2-432 limits assumed): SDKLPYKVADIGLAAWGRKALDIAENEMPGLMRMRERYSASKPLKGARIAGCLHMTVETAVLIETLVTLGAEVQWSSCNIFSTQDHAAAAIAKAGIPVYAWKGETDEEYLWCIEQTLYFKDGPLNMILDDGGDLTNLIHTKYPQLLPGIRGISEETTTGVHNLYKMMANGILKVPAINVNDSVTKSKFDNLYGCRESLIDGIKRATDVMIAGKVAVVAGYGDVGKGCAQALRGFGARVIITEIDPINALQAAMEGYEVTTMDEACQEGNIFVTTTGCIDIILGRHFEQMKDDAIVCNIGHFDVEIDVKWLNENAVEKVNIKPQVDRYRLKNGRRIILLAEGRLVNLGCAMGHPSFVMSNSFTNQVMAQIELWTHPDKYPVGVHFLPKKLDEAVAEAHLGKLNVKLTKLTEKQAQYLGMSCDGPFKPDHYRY
Assay [2] deals with T1, Adenosylhomocysteinase. The assay can be described thus: Affinity and reactivity of an affinity-labeling reagent, was assessed from the inhibitory constant value.
Target sequence in this assay (P23526 whole entry): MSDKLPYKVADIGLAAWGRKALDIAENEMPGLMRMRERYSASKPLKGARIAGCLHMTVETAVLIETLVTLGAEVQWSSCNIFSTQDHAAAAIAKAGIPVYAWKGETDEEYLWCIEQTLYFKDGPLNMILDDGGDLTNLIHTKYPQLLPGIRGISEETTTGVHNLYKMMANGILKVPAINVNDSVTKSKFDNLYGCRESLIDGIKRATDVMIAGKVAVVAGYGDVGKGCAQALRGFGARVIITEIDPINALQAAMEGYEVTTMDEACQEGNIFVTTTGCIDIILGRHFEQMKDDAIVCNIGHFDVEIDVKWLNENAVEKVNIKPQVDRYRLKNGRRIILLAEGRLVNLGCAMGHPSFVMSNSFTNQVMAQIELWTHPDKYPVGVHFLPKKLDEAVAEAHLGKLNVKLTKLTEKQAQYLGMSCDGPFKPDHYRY
In assay [3] the target is T1, Adenosylhomocysteinase. The assay can be described thus: Affinity and reactivity of an affinity-labeling reagent, was assessed from the inactivation constant value.
Target sequence in this assay (P23526 2-432 limits assumed): as the sequence (P23526 2-432 limits assumed) above

One molecule from ChEMBL document CHEMBL1131985, “9-[(2'S,3'S)-3'-formyl-2',3'-dihydroxypropyl]adenine: a facile affinity-labeling probe of human S-adenosyl-L-homocysteine hydrolase” (Bioorg Med Chem Lett, 1999) can be followed below.

As for `Nc1ncnc2c1ncn2C[C@H](O)[C@H](O)C=O`, the K app in assay [1] was 100 µM. The inhibitory constant (Ki) in assay [2] stood at 8.8 µM. Further, the K inact in assay [3] came out at 0.09 min⁻¹.
